The results in this text go back to PubChem BioAssay AID1996.

Values after ≈ are worked out from the molar mass of the structure shown. Bounds are passed on as bounds.

The conditions of the series: buffer; pH 7.4; 200.0 µM.
As a reminder, the kinetic solubility is solubility judged after dilution from a stock solution rather than from solid. For the molecule `CC/C(O)=C1\C(=O)CCCC1=NCCc1nc2ccccc2[nH]1`, the kinetic solubility is more than 46.7 µg/mL.

`O=C1NC(=O)C(c2ccc(F)cc2)N1` (configuration not stated) gave a kinetic solubility of more than 29.1 µg/mL.

Molecule `Cc1cc(C(=O)Nc2cccc3ccccc23)co1` returned a solubility (kinetic) of 33 µg/mL (≈ 131 µM).

`CCN(CC)C(=O)CSc1nc(-c2ccccc2)cc(=O)[nH]1` returned a solubility (kinetic) of more than 47.6 µg/mL.

The molecule `CC(C)c1ccc2nc(SCC(=O)NCC3CCCO3)c(C#N)cc2c1` (configuration not stated) returned a solubility (kinetic) of 2.4 µg/mL (≈ 6.5 µM).

For `O=C(O)COCC(=O)NCc1csc2ccccc12`, the solubility (kinetic) came out at 38.9 µg/mL (≈ 139 µM). This solubility kinetic is about 16-fold higher than that of the molecule before.

In turn, `CCOC(=O)NC(=O)c1cn(CCNCCO)c(=O)[nH]c1=O` came in with a solubility (kinetic) of more than 47.1 µg/mL.

Regarding `COc1ccc2[nH]c(C(=O)N(C)Cc3ccccc3)c(C)c2c1`, the solubility (kinetic) stood at 9.1 µg/mL (≈ 29.5 µM).

`CCOCc1c(C(=O)NCC(c2ccco2)N2CCCC2)oc2ccccc12` (configuration not stated) had a solubility (kinetic) of 56.2 µg/mL (≈ 147 µM).

Molecule `COc1ccc(N2C(=O)C3C(C2=O)C3(c2ccccc2)c2ccccc2)cc1` (configuration not stated) returned a kinetic solubility of 0.9 µg/mL (≈ 2.44 µM).

In turn, `CC1(C)Cc2ccccc2-c2nc(NCCCO)[nH]c(=O)c21` gave a solubility (kinetic) of 39.5 µg/mL (≈ 132 µM).

`Cc1nc(Nc2cccc(F)c2)c2oc3ccccc3c2n1` yielded a solubility (kinetic) of less than 0.2 µg/mL.

In turn, `CN1CCC(=NOc2ccc([N+](=O)[O-])cc2)CC1` returned a kinetic solubility of more than 37.4 µg/mL.

On to `COc1ccccc1C(=O)N1CCN(C(=O)Cc2ccccc2)CC1`, for which the kinetic solubility was 43.2 µg/mL (≈ 128 µM).

Regarding `O=C(Nc1ccccc1O)c1ccc2c(c1)C(=O)N(c1ccccc1)C2=O`, the solubility (kinetic) was less than 0.4 µg/mL.

In turn, `Cc1ccc(SCCNC(=O)c2ccccc2F)cc1` came in with a kinetic solubility of 27.8 µg/mL (≈ 96.1 µM).

As for `O=C(NC1CCCC1)c1cc(-c2ccccc2)nc2ccccc12`, the kinetic solubility came out at 1.4 µg/mL (≈ 4.42 µM).

For the molecule `O=C(OCC(=O)N1CCCC1)c1ccc(Cl)c([N+](=O)[O-])c1`, the solubility (kinetic) worked out at 31.8 µg/mL (≈ 102 µM).

`Cc1ccc(S(=O)(=O)NCCOc2nc(N(C)C)nc(N(C)C)n2)cc1` gave a solubility (kinetic) of 52.8 µg/mL (≈ 139 µM).

As to `Cl.O=C(O)C1=CCCNC1`, the kinetic solubility was more than 24.5 µg/mL.

Molecule `NS(=O)(=O)c1ccc(NC(=O)c2ccc(OCC3CCCO3)cc2)cc1` (configuration not stated) returned a kinetic solubility of 13 µg/mL (≈ 34.5 µM).

`O=C(COC(=O)c1ccc2ccccc2n1)NC1CCCCC1`: the kinetic solubility amounted to 8.5 µg/mL (≈ 27.2 µM).

Take `CCOc1ccccc1NC(=O)c1nc(-c2ccccc2)oc1C`: the solubility (kinetic) turned out to be 0.9 µg/mL (≈ 2.79 µM). Compared with the last molecule, the solubility kinetic is about 9.4-fold lower.

`C=CCNC(=O)CN1CCC(c2nc3cc(C)c(C)cc3[nH]2)CC1`: the kinetic solubility is more than 49 µg/mL.

Molecule `CC(C)(C)NC(=O)NCc1ccco1` returned a solubility (kinetic) of more than 29.4 µg/mL.

As for `CC(NC(=O)c1cccs1)c1ccc(Cl)cc1` (configuration not stated), the kinetic solubility was 9.8 µg/mL (≈ 36.9 µM).

Take `Cc1ccc(CNC(=O)C(C)C2Sc3ccccc3NC2=O)cc1` (configuration not stated): the kinetic solubility was found to be 1.6 µg/mL (≈ 4.7 µM). Against the preceding molecule, the solubility kinetic is about 6.1-fold lower.

`COc1ccc(C(=O)C23CN4CN(CN(C4)C2)C3)cc1` yielded a solubility (kinetic) of more than 41 µg/mL.

The molecule `O=C1CNC(c2ccccc2Cl)c2cc(Br)ccc2N1` (configuration not stated) had a kinetic solubility of 0.8 µg/mL (≈ 2.28 µM).

`COc1ccccc1C(=O)Nc1sc2c(c1C(N)=O)CCCC2` displayed a solubility (kinetic) of less than 0.4 µg/mL.

On to `COc1ccc(Cl)cc1/C=C1/C(=O)ON=C1C`, for which the kinetic solubility worked out at 29 µg/mL (≈ 115 µM).

In turn, `O=C(COC(=O)/C=C/c1ccc(S(=O)(=O)N2CCOCC2)cc1)Nc1ccccc1F` showed a kinetic solubility of 12.5 µg/mL (≈ 27.9 µM).

In turn, `COC(=O)c1ccc(COc2ccc(NC(C)=O)cc2)o1` returned a kinetic solubility of more than 43.4 µg/mL.

On to `CCN(CC)CCCN(C(=O)c1ccc(F)cc1)c1nc(-c2ccc(OC)cc2)cs1`, for which the kinetic solubility was 62.1 µg/mL (≈ 141 µM).

Molecule `O=C(NCCNC(=O)c1cnccn1)c1ccc(Cl)cc1` showed a solubility (kinetic) of more than 45.7 µg/mL.

In turn, `CCNC(=O)c1ccccc1-c1nc(-c2ccccc2)no1` gave a solubility (kinetic) of 35.4 µg/mL (≈ 121 µM).

With `O=C(c1ccc(F)cc1)C1CCN(C(=O)c2c(F)cccc2F)CC1`, the solubility (kinetic) is more than 52.1 µg/mL.

Turning to `CC(Sc1nnc(N)s1)C(=O)Nc1nccs1` (configuration not stated), the kinetic solubility is more than 43.1 µg/mL.

For the molecule `COC(=O)CSc1[nH]c2cc(C)ccc2c1[N+](=O)[O-]`, the kinetic solubility is more than 42 µg/mL.

The molecule `O=C(NCCc1csc(-c2cccc(F)c2)n1)c1ccco1` had a kinetic solubility of more than 47.5 µg/mL.

`COc1ccccc1-n1cnc2sc(C)c(C)c2c1=O` displayed a kinetic solubility of 15.1 µg/mL (≈ 52.7 µM).

`CC1CCN(CC(=O)N2CCc3ccccc32)CC1` gave a solubility (kinetic) of 36.9 µg/mL (≈ 143 µM).

Take `Cc1ccc(NC(=O)CO/N=C/c2ccccc2C)c(C)c1`: the kinetic solubility was determined as 8.7 µg/mL (≈ 29.4 µM).

`O=C(COC(=O)c1cnc(Cl)c(Cl)c1)c1ccc(F)cc1` gave a kinetic solubility of 9.4 µg/mL (≈ 28.6 µM).

Consider `Nc1ccc(C(=O)Nc2cccc(NC(=O)c3ccc(N)cc3)c2)cc1`, for which the solubility (kinetic) was 34.8 µg/mL (≈ 100 µM).

Regarding `CN1C(=O)N(CC(=O)Nc2nccs2)C(=O)C12CCCCC2`, the solubility (kinetic) is more than 48.4 µg/mL.

Consider `Cc1cccc(NC(=O)c2ccc3nccnc3c2)c1C`, for which the solubility (kinetic) came to 37.1 µg/mL (≈ 134 µM).

For `O=S(=O)(Nc1ccc(N2CCCCC2)cc1)c1ccc(F)cc1`, the kinetic solubility is 9.5 µg/mL (≈ 28.4 µM).

In the case of `Cc1cc(C(F)F)nn1CC(=O)NC1CCCC1`, the solubility (kinetic) is more than 38.6 µg/mL.

In turn, `COc1cc(SC)ccc1C(=O)NCCN1CCOCC1` showed a solubility (kinetic) of more than 46.6 µg/mL.

In turn, `Cc1cccc(C(=O)Nc2ccc(O)cc2C(=O)O)c1` displayed a kinetic solubility of more than 40.7 µg/mL.

Molecule `COc1ccc(CNC(=O)c2cc(=O)c3cc(C)c(C)cc3o2)cc1` displayed a kinetic solubility of less than 0.7 µg/mL.
